According to PubChem BioAssay AID743296 (The Scripps Research Institute Molecular Screening Center, 2014):
Calls of active or inactive are those of the source. How the calls were made is not given here.

Target: CCHFV viral ovarian tumor domain protease (vOTU, L protein)
Assay: CCHFV vOTU protease inhibitor potency, dose response, biochemical, fluorescence, Pep-AMC substrate (AID 743296)
Details: recombinant CCHFV vOTU

## CC(=O)c1ccc(NC(=S)Nc2cccc3cnccc23)cc1
  IC50: > 115 µM (inactive)

## O=C(COC(=O)c1ccc([N+](=O)[O-])s1)Nc1ccc(F)cc1
  IC50: 7.27 µM

## Cc1cnc(C2OCCO2)c2cccc(N)c12
  IC50: inactive

## NS(=O)(=O)c1ccc(NC2=CC(=O)C(=O)c3ccccc32)cc1
  IC50: 4.22 µM

## O=C(O)CSc1cc(NS(=O)(=O)c2ccc(Cl)cc2)c2ccccc2c1O
  IC50: 3.4 µM

## CCOC(=O)C1=C(COC(=O)c2ccc([N+](=O)[O-])s2)NC(=O)NC1C (configuration not stated)
  IC50: 7.97 µM

## O=C(/C=C/c1ccc(O)cc1)c1ccc(NC2=C(N3CCCCC3)C(=O)c3ccccc3C2=O)cc1
  IC50: 4.19 µM

## CCOC(=O)N=Nc1c2ccccc2c2nc3no[nH]c3nc12
  IC50: 2.54 µM

## COc1cc(NC(=O)COC(=O)c2ccc([N+](=O)[O-])s2)cc(OC)c1OC
  IC50: 8.38 µM

## O=C1C=C(Nc2ccccc2)c2ccccc2C1=O
  IC50: 6.64 µM

## O=C(NC1=CC(=O)c2ccccc2C1=O)c1ccccc1
  IC50: 4.64 µM

## Cc1ccccc1-c1cc2c(nn1)-c1ccccc1C2=O
  IC50: 0.545 µM

## NC1=C(Cl)C(=O)c2ccc(S(N)(=O)=O)cc2C1=O
  IC50: 0.122 µM

## CC1CCCC(NC(=O)COC(=O)c2ccc([N+](=O)[O-])s2)C1C (configuration not stated)
  IC50: 9.29 µM

## COc1cc(C(=O)c2nccc3cc(OC)c(OC)cc23)c([N+](=O)[O-])cc1OC
  IC50: 1.42 µM

## COc1ccc2noc3c2c1C(=O)c1ccccc1-3
  IC50: 8.11 µM

## Cc1ccc(N2C(=O)[C@@H]3[C@H](C2=O)C2c4ccccc4C=CN2[C@@H]3C(=O)c2ccco2)cc1 (some centres not stated)
  IC50: 6.53 µM

## O=C(O)CSc1cc(NS(=O)(=O)c2cccc([N+](=O)[O-])c2)c2ccccc2c1O
  IC50: 1.95 µM

## CN(C1=C(NC(=O)c2ccccc2)C(=O)c2ccccc2C1=O)C1CCS(=O)(=O)C1 (configuration not stated)
  IC50: 2.67 µM

## CCc1cc[n+](C2=C(NS(=O)(=O)c3cccs3)C(=O)c3ccccc3C2=O)cc1
  IC50: 3.5 µM

## O=C1Cc2ccccc2C(=O)N1Cc1ccccc1
  IC50: 1.19 µM

## CC(C)=CCC1=C(OCC(=O)O)C(=O)c2ccccc2C1=O
  IC50: 3.23 µM

## COc1cc(Br)c(C(=O)c2nccc3cc(OC)c(OC)cc23)cc1OC
  IC50: 0.276 µM

## O=C(COC(=O)c1ccc([N+](=O)[O-])s1)Nc1ccccc1
  IC50: 8.21 µM

## Cn1nc(-c2ccccn2)nc2c(=O)n(C)c(=O)nc1-2
  IC50: 0.251 µM

## S=C(Nc1ccc(Cl)cc1)Nc1cccc2cnccc12
  IC50: inactive

## O=S(=O)(Nc1cc2nc3ccccc3nc2n1Cc1ccccc1)c1ccc(Cl)cc1
  IC50: 4.14 µM

## O=C1OC(Nc2cc(Br)cc3cccnc23)c2ccccc21 (configuration not stated)
  IC50: > 115 µM (inactive)

## COC1=C(N)C(=O)c2nc(C)ccc2C1=O
  IC50: 0.824 µM

## CCOC(=O)c1c2c(n(Cc3ccccc3)c1C)C(=O)C(=O)c1ccccc1-2
  IC50: 2.12 µM

## CC1(C)C=C2C(=NN(c3ccccc3)C(N)=C2C#N)CO1
  IC50: 1.54 µM

## O=S(=O)(Nc1cc(Sc2ncn[nH]2)c(O)c2ccccc12)c1ccccc1
  IC50: 0.458 µM

## CC1COCC(C)N1C1=C(Cl)C(=O)c2ccccc2C1=O (configuration not stated)
  IC50: 7.43 µM

## O=C(c1ccco1)[C@@H]1[C@@H]2C(=O)N(c3ccc(Br)cc3)C(=O)[C@@H]2C2c3ccccc3C=CN21 (some centres not stated)
  IC50: 5.18 µM

## Cc1ccc2c(c1C)-c1c(ccc(C)c1C)C(=O)C2=O
  IC50: 7.46 µM

## Cc1ccc(NC2=CC(=O)C(=O)c3ccccc32)cc1
  IC50: 5.14 µM

## COc1cc(NCCCCCCN)c2ncccc2c1OC
  IC50: inactive

## CCC(CNc1cc(OC)cc2cccnc12)NC1CCCCC1 (configuration not stated)
  IC50: 5.86 µM

## NS(=O)(=O)c1ccc(NC(=O)COC(=O)c2ccc([N+](=O)[O-])s2)cc1
  IC50: 8.1 µM

## COc1ccccc1NC(=O)COC(=O)c1ccc([N+](=O)[O-])s1
  IC50: 7.82 µM

## Nc1cc2c(cc1Br)[nH]c(=O)c1ccccc12
  IC50: inactive

## O=C1Cc2ccccc2C(=O)N1CCc1ccccc1
  IC50: 0.901 µM

## O=C(NC1=C(NC2CCS(=O)(=O)C2)C(=O)c2ccccc2C1=O)c1ccccc1 (configuration not stated)
  IC50: 2.79 µM

## COc1cc2c(cc1O)[C@@H]1Cc3ccc(OC)c(O)c3CN1CC2
  IC50: inactive

## O=C(OCc1nnc(-c2ccccc2)o1)c1ccc([N+](=O)[O-])s1
  IC50: 6.91 µM

## COC(CNC(=O)c1ccc2c3c(onc13)-c1ccccc1C2=O)OC
  IC50: 7.11 µM

## O=C(COC(=O)c1ccc([N+](=O)[O-])s1)NCc1ccc(F)cc1
  IC50: 9.46 µM

## COc1cc(NCCCC(C)N)c2ncccc2c1 (configuration not stated)
  IC50: > 115 µM (inactive)

## O=C(O)CSc1cc(NS(=O)(=O)c2ccc(Br)cc2)c2ccccc2c1O
  IC50: 1.66 µM

## O=C1Cc2ccccc2C(=O)N1
  IC50: 0.419 µM

## Cc1c(Cl)cnc(NC(=O)COC(=O)c2ccc([N+](=O)[O-])s2)c1Cl
  IC50: inactive

## O=C(COC(=O)c1ccc([N+](=O)[O-])s1)Nc1ncc(C(F)(F)F)cc1Cl
  IC50: inactive
